# Reference: patent publication US20200288711A1, “Pyrimidin-4-Carbamate or Urea Derivatives As Herbicides” (Syngenta Participations AG, priority 2017, published 2020)
# Tests used:
# Type in all cases: in vivo
# [1] = tested on: Alopecurus myosuroides (ALOMY); assay: B1 pre-emergence herbicidal activity; design: key: 5=total damage to plant; 0=no damage to plant; settings: Test 1b, rate 1000 g/ha, evaluated after 13 days, score 0-5 (5=total damage, 0=no damage)
# Experimental: (§1) Seeds of a variety of test species were sown in standard soil in pots: Triticum aestivium (TRZAW), Avena fatua (AVEFA), Alopecurus myosuroides (ALOMY), Echinochloa crus-galli (ECHCG), Lolium perenne (LOLPE), Zea mays (ZEAMX), Abutilon theophrasti (ABUTH), Amaranthus retroflexus (AMARE) and Setaria faberi (SETFA). After cultivation for one day (pre-emergence) under controlled conditions in a glasshouse (at 24/16° C., day/night; 14 hours light; 65% humidity), the plants were sprayed with an aqueous spray solution derived from the formulation of the technical active ingredient in acetone/water (50:50) solution containing 0.5% Tween 20 (polyoxyethelyene sorbitan monolaurate, CAS RN 9005-64-5). The test plants were then grown in a glasshouse under controlled conditions (at 24/16° C., day/night; 14 hours light; 65% humidity) and watered twice daily. After 13 days, the test was evaluated (5=total damage to plant; 0=no damage to plant).
# Avena fatua (AVEFA) [2] = assay: B1 pre-emergence herbicidal activity; design: key: 5=total damage to plant; 0=no damage to plant; settings: Test 1b, rate 1000 g/ha, evaluated after 13 days, score 0-5 (5=total damage, 0=no damage)
# Experimental: as §1
# Lolium perenne (LOLPE) [3] = assay: B1 pre-emergence herbicidal activity; design: key: 5=total damage to plant; 0=no damage to plant; settings: Test 1b, rate 1000 g/ha, evaluated after 13 days, score 0-5 (5=total damage, 0=no damage)
# Experimental: as §1
# [4] = tested on: Triticum aestivium (TRZAW); assay: B1 pre-emergence herbicidal activity; design: key: 5=total damage to plant; 0=no damage to plant; settings: Test 1b, rate 1000 g/ha, evaluated after 13 days, score 0-5 (5=total damage, 0=no damage)
# Experimental: as §1
# Setaria faberi (SETFA) [5] = assay: B1 pre-emergence herbicidal activity; design: key to Pre-emergence herbicidal activity, SETFA: 5=total damage to plant; 0=no damage to plant; settings: Test 1b, rate 1000 g/ha, evaluated after 13 days, score 0-5 (5=total damage, 0=no damage)
# Experimental: as §1
# [6] = tested on: Echinochloa crus-galli (ECHCG); assay: B1 pre-emergence herbicidal activity; design: key to Pre-emergence herbicidal activity, ECHCG: 5=total damage to plant; 0=no damage to plant; settings: Test 1b, rate 1000 g/ha, evaluated after 13 days, score 0-5 (5=total damage, 0=no damage)
# Experimental: as §1
# [7] = tested on: Alopecurus myosuroides (ALOMY); assay: B2 post-emergence herbicidal activity; design: key: 5=total damage to plant; 0=no damage to plant; settings: Test 2b, rate 1000 g/ha, evaluated after 13 days, score 0-5 (5=total damage, 0=no damage)
# Experimental: (§2) Seeds of a variety of test species were sown in standard soil in pots: Triticum aestivium (TRZAW), Avena fatua (AVEFA), Alopecurus myosuroides (ALOMY), Echinochloa crus-galli (ECHCG), Lolium perenne (LOLPE), Zea mays (ZEAMX), Abutilon theophrasti (ABUTH), Amaranthus retroflexus (AMARE) and Setaria faberi (SETFA). After 8 days cultivation (post-emergence) under controlled conditions in a glasshouse (at 24/16° C., day/night; 14 hours light; 65% humidity), the plants were sprayed with an aqueous spray solution derived from the formulation of the technical active ingredient in acetone/water (50:50) solution containing 0.5% Tween 20 (polyoxyethelyene sorbitan monolaurate, CAS RN 9005-64-5). The test plants were then grown in a glasshouse under controlled conditions (at 24/16° C., day/night; 14 hours light; 65% humidity) and watered twice daily. After 13 days, the test was evaluated (5=total damage to plant; 0=no damage to plant).
# Avena fatua (AVEFA) [8] = assay: B2 post-emergence herbicidal activity; design: key: 5=total damage to plant; 0=no damage to plant; settings: Test 2b, rate 1000 g/ha, evaluated after 13 days, score 0-5 (5=total damage, 0=no damage)
# Experimental: as §2
# [9] = tested on: Echinochloa crus-galli (ECHCG); assay: B2 post-emergence herbicidal activity; design: key: 5=total damage to plant; 0=no damage to plant; settings: Test 2b, rate 1000 g/ha, evaluated after 13 days, score 0-5 (5=total damage, 0=no damage)
# Experimental: as §2
# Lolium perenne (LOLPE) [10] = assay: B2 post-emergence herbicidal activity; design: key: 5=total damage to plant; 0=no damage to plant; settings: Test 2b, rate 1000 g/ha, evaluated after 13 days, score 0-5 (5=total damage, 0=no damage)
# Experimental: as §2
# Setaria faberi (SETFA) [11] = assay: B2 post-emergence herbicidal activity; design: key: 5=total damage to plant; 0=no damage to plant; settings: Test 2b, rate 1000 g/ha, evaluated after 13 days, score 0-5 (5=total damage, 0=no damage)
# Experimental: as §2
# [12] = tested on: Triticum aestivium (TRZAW); assay: B2 post-emergence herbicidal activity; design: key: 5=total damage to plant; 0=no damage to plant; settings: Test 2b, rate 1000 g/ha, evaluated after 13 days, score 0-5 (5=total damage, 0=no damage)
# Experimental: as §2
SMILES,"Pre-emergence herbicidal activity, ALOMY [1]","Pre-emergence herbicidal activity, AVEFA (Avena fatua (AVEFA) [2])","Pre-emergence herbicidal activity, LOLPE (Lolium perenne (LOLPE) [3])","Pre-emergence herbicidal activity, TRAZW [4]","Pre-emergence herbicidal activity, SETFA (Setaria faberi (SETFA) [5])","Pre-emergence herbicidal activity, ECHCG [6]","Control of weed species after post-emergence application, ALOMY [7]","Control of weed species after post-emergence application, AVEFA (Avena fatua (AVEFA) [8])","Control of weed species after post-emergence application, ECHCG [9]","Control of weed species after post-emergence application, LOLPE (Lolium perenne (LOLPE) [10])","Control of weed species after post-emergence application, SETFA (Setaria faberi (SETFA) [11])","Control of weed species after post-emergence application, TRAZW [12]"
CCOC(=O)Nc1cnc(-c2cncc(F)c2)nc1C(F)(F)F [Compound E19],0,0,1,0,4,3,0,3,5,3,5,1
"CC(C)(C)OC(=O)Nc1cnc(-c2cncc(F)c2)nc1C(F)(F)F [Compound E4, tert-butyl N-[2-(5-fluoro-3-pyridyl)-4-(trifluoromethyl)pyrimidin-5-yl]carbamate]",0,4,1,0,4,4,1,4,4,3,5,1
CC(C)COC(=O)Nc1cnc(-c2cncc(F)c2)nc1C(F)(F)F [Compound E15],0,2,1,0,5,5,1,4,5,3,5,2
"CC(C)(C)OC(=O)Nc1cnc(-c2cncc(C#N)c2)nc1C(F)(F)F [Compound E12, tert-butyl N-[2-(5-cyano-3-pyridyl)-4-(trifluoromethyl)pyrimidin-5-yl]carbamate]",0,0,0,0,4,3,0,2,2,1,5,0
CN(C(=O)OC(C)(C)C)c1cnc(-c2cncc(F)c2)nc1C(F)(F)F [Compound E5],0,3,1,0,5,3,0,4,4,2,5,0
"Cc1nc(-c2cncnc2)ncc1NC(=O)OC(C)(C)C [Compound E7, tert-butyl N-(4-methyl-2-pyrimidin-5-yl-pyrimidin-5-yl)carbamate]",0,2,1,0,4,5,0,3,4,2,4,0
C=CCN(C(=O)OC(C)(C)C)c1cnc(-c2cncnc2)nc1C [Compound E6],0,1,1,0,5,3,1,2,3,1,5,1
CC(C)(C)OC(=O)Nc1cnc(-c2cncnc2)nc1C(F)(F)F [Compound E11],1,2,1,0,4,3,0,3,4,2,4,1
CC(C)(C)OC(=O)Nc1cnc(-c2cncc(F)c2)nc1OCc1ccccc1 [Compound E20],0,0,0,0,0,0,0,0,0,0,1,0
COC(=O)Nc1cnc(-c2cncc(F)c2)nc1C(F)(F)F [Compound E21],1,0,0,1,4,3,1,4,5,2,4,1
CCCOC(=O)Nc1cnc(-c2cncc(F)c2)nc1C(F)(F)F [Compound E10],0,2,1,0,,4,0,3,4,1,5,1
